US12472170B2, “Use of glutamate 2B receptor antagonists and sigma receptor agonists as antitussives” (Seyltx, Inc., priority 2019, dated 2025)
“And” between values parts separate entries of the source, which are not always exact repeats. Equal values may be shown once.

Test system: citric acid (1M) evoked cough in guinea pigs
Experiment: Citric acid (1M) aerosol-evoked coughs and sneezes in conscious guinea pigs after oral pre-treatment
Type: in vivo, Male Dunkin Hartley guinea pigs
Experimental: The guinea pig species used in one study was twenty four Male Dunkin Hartley guinea pigs, each weighing between 300 and 350 g, which were supplied by Marshall Bioresources Ltd, UK.
A test compound, Ifenprodil, and Gefapixant (in powder form) were prepared and formulated by initially adding 100% propylene glycol at the required volume for the final treatment buffer. The additional buffer ingredients were added in a stepwise fashion, initially solutol and then captisol. Each ingredient was added in a volume equivalent to that which is required for the final volume of treatment buffer for the stock formulation.
In particular, for Gefapixant, this was 0.7 mg/mL, a concentration that delivers 3.5 mg/Kg in a dose volume of 5 mL/Kg. For Ifenprodil, this was 0.3 mg/mL, a concentration that delivers 1.5 mg/Kg in a dose volume of 5 mL/Kg.
Prior to the addition of each buffer ingredient, the test compound formulations were sonicated for 15 min using a Branson 1510 Sonicator. Afterwards, the initial formulation of the test compound and Gefapixant were diluted with a prepared buffer vehicle to provide additional dosing formulations. This was 0.01 to 0.2 mg/ml, preferably 0.06 mg/mL, a dose that delivers 0.3 mg/Kg in a dose volume of 5 mL/Kg.
The final test compound buffer vehicle comprised of 10:10:80 mix of propylene glycol:20% Solutol in PBS:5% Captisol in PBS.
All final test and control formulations were sonicated for 30 min prior to dosing to generate an even suspension or to ensure that the formulation had visibly dissolved.
The animals were first pre-treated (5 mL/Kg, p.o.) with the vehicle, the test compound, or Gefapixant prior to tussive agent (citric acid) exposure, using the amounts set out in Table 1 below. In each case, the route of administration of the treatment was oral.
Animals receiving Gefapixant (3.5 mg/Kg) were dosed 2 hours prior to tussive agent exposure. Animals receiving Ifenprodil (1.5 mg/Kg) were dosed 30 minutes prior to tussive agent exposure.
10 min prior to the tussive evaluation, each animal was individually placed into a purpose built exposure chamber with a supplied airflow through a nebuliser of 2 L/min, and allowed to settle into its new environment.
Following the acclimatisation period, each animal was then exposed for 10 min to an aerosol of 1M citric acid using an ultrasonic nebuliser (Aerogen) set at a nominal liquid consumption rate of 0.6 mL/min.
Coughs and sneezes elicited during the 10 minute aerosol of 1M citric acid, and a subsequent 5 minute observation period, were recorded manually to monitor the animal's welfare. […] The data was analysed for onset of cough, cough numbers and frequency, and sneezes.
The following measurements and assessments were taken for each guinea pig: • Mean total number of coughs evoked in each treatment group • Mean onset of first cough in each group • Mean number of coughs per minute during citric acid exposure in each treatment group
Inter-group deviations were statistically analyzed by a one-way analysis of variance (ANOVA). In the case of significant difference in the mean values among the different levels of treatment, comparisons versus the citric acid vehicle group were carried out using the Dunnett's test. p<0.05 was considered statistically significant.

[1] = Mean of n=6 animals, 10 min Citric acid (1M) exposure, Gefapixant 3.5 mg/Kg p.o., Ifenprodil 1.5 mg/Kg
[2] = Mean of n=6 animals, Post Exposure (5 mins) after 10 min Citric acid (1M), Gefapixant 3.5 mg/Kg p.o., Ifenprodil 1.5 mg/Kg
[3] = Total of n=6 animals, 10 min Citric acid (1M) exposure, Gefapixant 3.5 mg/Kg p.o., Ifenprodil 1.5 mg/Kg
[4] = Total of n=6 animals, Post Exposure (5 mins) after 10 min Citric acid (1M), Gefapixant 3.5 mg/Kg p.o., Ifenprodil 1.5 mg/Kg
[5] = individual animals (ID 1-6), 10 min Citric acid (1M) exposure, Gefapixant 3.5 mg/Kg p.o., Ifenprodil 1.5 mg/Kg
[6] = individual animals (ID 1-6), Post Exposure (5 mins) after 10 min Citric acid (1M), Gefapixant 3.5 mg/Kg p.o., Ifenprodil 1.5 mg/Kg

COc1cc(C(C)C)c(Oc2cnc(N)nc2N)cc1S(N)(=O)=O [Gefapixant]
Total Coughs, Mean (10 min citric acid (1M) exposure + 5 min post exposure, group mean, n=6): 23.67 | Total Coughs, individual animal (10 min citric acid (1M) exposure + 5 min post exposure, individual animals 1-6): 16 and 26 and 24 and 23 and 33 and 20 | average number of coughs per animal (total number of coughs) (10 min citric acid (1M) exposure + 5 min recovery, Gefapixant 3.5 mg/Kg p.o. 2 hrs prior, Ifenprodil 1.5 mg/Kg p.o. 30 min prior, n=6): 23.67 coughs per animal | reduction in mean cough frequency vs untreated control (Ifenprodil 1.5 mg/kg (p<0.01), Gefapixant 3.5 mg/kg (p<0.05)): 20% | Sneezes, Observation Period 0-1, group Mean [1]: 0.2 | Sneezes, Observation Period 1-2, group Mean [1]: 0.3 | Sneezes, Observation Period 2-3, group Mean [1]: 0.3 | Sneezes, Observation Period 3-4, group Mean [1]: 0.2 | Sneezes, Observation Period 4-5, group Mean [1]: 0.5 | Sneezes, Observation Period 5-6, group Mean [1]: 0.5 | Sneezes, Observation Period 6-7, group Mean [1]: 0.5 | Sneezes, Observation Period 7-8, group Mean [1]: 0.0 | Sneezes, Observation Period 8-9, group Mean [1]: 0.5 | Sneezes, Observation Period 9-10, group Mean [1]: 0.2 | Sneezes, Observation Period 10-11, group Mean [2]: 0.0 | Sneezes, Observation Period 11-12, group Mean [2]: 0.0 | Sneezes, Observation Period 12-13, group Mean [2]: 0.0 | Sneezes, Observation Period 13-14, group Mean [2]: 0.0 | Sneezes, Observation Period 14-15, group Mean [2]: 0.0 | Total Sneezes, group Mean (Mean of n=6 animals, whole observation period 0-15 (10 min Citric acid (1M) exposure + Post Exposure 5 mins), Gefapixant 3.5 mg/Kg p.o., Ifenprodil 1.5 mg/Kg): 3.17 | Sneezes, Observation Period 0-1, group Total [3]: 1.0 | Sneezes, Observation Period 1-2, group Total [3]: 2.0 | Sneezes, Observation Period 2-3, group Total [3]: 2.0 | Sneezes, Observation Period 3-4, group Total [3]: 1.0 | Sneezes, Observation Period 4-5, group Total [3]: 3.0 | Sneezes, Observation Period 5-6, group Total [3]: 3.0 | Sneezes, Observation Period 6-7, group Total [3]: 3.0 | Sneezes, Observation Period 7-8, group Total [3]: 0.0 | Sneezes, Observation Period 8-9, group Total [3]: 3.0 | Sneezes, Observation Period 9-10, group Total [3]: 1.0 | Sneezes, Observation Period 10-11, group Total [4]: 0.0 | Sneezes, Observation Period 11-12, group Total [4]: 0.0 | Sneezes, Observation Period 12-13, group Total [4]: 0.0 | Sneezes, Observation Period 13-14, group Total [4]: 0.0 | Sneezes, Observation Period 14-15, group Total [4]: 0.0 | first onset of cough (citric acid (1M) exposure, Gefapixant 3.5 mg/Kg p.o., Ifenprodil 1.5 mg/Kg p.o., group mean, n=6): 49.7 s | average number of sneezes per animal (citric acid (1M) exposure, Gefapixant 3.5 mg/Kg p.o., Ifenprodil 1.5 mg/Kg p.o., n=6): 3.17 sneezes per animal | Onset (sec), Mean (citric acid (1M) exposure, group mean, n=6): 49.7 s | Onset (sec), individual animal (citric acid (1M) exposure, individual animals 1-6): 72 s and 24 s and 64 s and 36 s and 32 s and 70 s | Sneezes, Observation Period 0-1 [5]: 0 (5×) and 1 | Sneezes, Observation Period 1-2 [5]: 0 (4×) and 1 (2×) | Sneezes, Observation Period 2-3 [5]: 1 (2×) and 0 (4×) | Sneezes, Observation Period 3-4 [5]: 0 (5×) and 1 | Sneezes, Observation Period 4-5 [5]: 1 (3×) and 0 (3×) | Sneezes, Observation Period 5-6 [5]: 0 (3×) and 1 (3×) | Sneezes, Observation Period 6-7 [5]: 1 (3×) and 0 (3×) | Sneezes, Observation Period 7-8 [5]: 0 | Sneezes, Observation Period 8-9 [5]: 1 (3×) and 0 (3×) | Sneezes, Observation Period 9-10 [5]: 0 (5×) and 1 | Sneezes, Observation Period 10-11 [6]: 0 | Sneezes, Observation Period 11-12 [6]: 0 | Sneezes, Observation Period 12-13 [6]: 0 | Sneezes, Observation Period 13-14 [6]: 0 | Sneezes, Observation Period 14-15 [6]: 0 | Total Sneezes (individual animals (ID 1-6), whole observation period 0-15 (10 min Citric acid (1M) exposure + Post Exposure 5 mins), Gefapixant 3.5 mg/Kg p.o., Ifenprodil 1.5 mg/Kg): 4 (2×) and 3 and 5 and 2 and 1 | Cough, observation period 0-1, Mean (min 0-1 of citric acid (1M) exposure, group mean, n=6): 0.5 | Cough, observation period 0-1, individual animal (min 0-1 of citric acid (1M) exposure, individual animals 1-6): 0 (3×) and 1 (3×) | Cough, observation period 0-1, Total (min 0-1 of citric acid (1M) exposure, sum over 6 animals): 3.0 | Cough, observation period 1-2, Mean (min 1-2 of citric acid (1M) exposure, group mean, n=6): 2.0 | Cough, observation period 1-2, individual animal (min 1-2 of citric acid (1M) exposure, individual animals 1-6): 1 (2×) and 3 (2×) and 2 (2×) | Cough, observation period 1-2, Total (min 1-2 of citric acid (1M) exposure, sum over 6 animals): 12.0 | Cough, observation period 2-3, Mean (min 2-3 of citric acid (1M) exposure, group mean, n=6): 3.0 | Cough, observation period 2-3, individual animal (min 2-3 of citric acid (1M) exposure, individual animals 1-6): 1 and 3 (2×) and 4 and 5 and 2 | Cough, observation period 2-3, Total (min 2-3 of citric acid (1M) exposure, sum over 6 animals): 18.0 | Cough, observation period 3-4, Mean (min 3-4 of citric acid (1M) exposure, group mean, n=6): 2.3 | Cough, observation period 3-4, individual animal (min 3-4 of citric acid (1M) exposure, individual animals 1-6): 2 (3×) and 3 and 4 and 1 | Cough, observation period 3-4, Total (min 3-4 of citric acid (1M) exposure, sum over 6 animals): 14.0 | Cough, observation period 4-5, Mean (min 4-5 of citric acid (1M) exposure, group mean, n=6): 2.8 | Cough, observation period 4-5, individual animal (min 4-5 of citric acid (1M) exposure, individual animals 1-6): 2 (2×) and 3 (3×) and 4 | Cough, observation period 4-5, Total (min 4-5 of citric acid (1M) exposure, sum over 6 animals): 17.0 | Cough, observation period 5-6, Mean (min 5-6 of citric acid (1M) exposure, group mean, n=6): 2.7 | Cough, observation period 5-6, individual animal (min 5-6 of citric acid (1M) exposure, individual animals 1-6): 1 and 3 (3×) and 2 and 4 | Cough, observation period 5-6, Total (min 5-6 of citric acid (1M) exposure, sum over 6 animals): 16.0 | Cough, observation period 6-7, Mean (min 6-7 of citric acid (1M) exposure, group mean, n=6): 2.3 | Cough, observation period 6-7, individual animal (min 6-7 of citric acid (1M) exposure, individual animals 1-6): 1 and 2 (3×) and 4 and 3 | Cough, observation period 6-7, Total (min 6-7 of citric acid (1M) exposure, sum over 6 animals): 14.0 | Cough, observation period 7-8, Mean (min 7-8 of citric acid (1M) exposure, group mean, n=6): 1.7 | Cough, observation period 7-8, individual animal (min 7-8 of citric acid (1M) exposure, individual animals 1-6): 2 (4×) and 1 (2×) | Cough, observation period 7-8, Total (min 7-8 of citric acid (1M) exposure, sum over 6 animals): 10.0 | Cough, observation period 8-9, Mean (min 8-9 of citric acid (1M) exposure, group mean, n=6): 2.0 | Cough, observation period 8-9, individual animal (min 8-9 of citric acid (1M) exposure, individual animals 1-6): 2 (4×) and 3 and 1 | Cough, observation period 8-9, Total (min 8-9 of citric acid (1M) exposure, sum over 6 animals): 12.0 | Cough, observation period 9-10, Mean (min 9-10 of citric acid (1M) exposure, group mean, n=6): 1.7 | Cough, observation period 9-10, individual animal (min 9-10 of citric acid (1M) exposure, individual animals 1-6): 2 (3×) and 3 and 0 and 1 | Cough, observation period 9-10, Total (min 9-10 of citric acid (1M) exposure, sum over 6 animals): 10.0 | Cough, observation period 10-11, Mean (min 10-11, post exposure, group mean, n=6): 1.5 | Cough, observation period 10-11, individual animal (min 10-11, post exposure, individual animals 1-6): 1 (3×) and 2 (3×) | Cough, observation period 10-11, Total (min 10-11, post exposure, sum over 6 animals): 9.0 | Cough, observation period 11-12, Mean (min 11-12, post exposure, group mean, n=6): 0.5 | Cough, observation period 11-12, individual animal (min 11-12, post exposure, individual animals 1-6): 0 (3×) and 1 (3×) | Cough, observation period 11-12, Total (min 11-12, post exposure, sum over 6 animals): 3.0 | Cough, observation period 12-13, Mean (min 12-13, post exposure, group mean, n=6): 0.5 | Cough, observation period 12-13, individual animal (min 12-13, post exposure, individual animals 1-6): 1 (3×) and 0 (3×) | Cough, observation period 12-13, Total (min 12-13, post exposure, sum over 6 animals): 3.0 | Cough, observation period 13-14, Mean (min 13-14, post exposure, group mean, n=6): 0.2 | Cough, observation period 13-14, individual animal (min 13-14, post exposure, individual animals 1-6): 0 (5×) and 1 | Cough, observation period 13-14, Total (min 13-14, post exposure, sum over 6 animals): 1.0 | Cough, observation period 14-15, Mean (min 14-15, post exposure, group mean, n=6): 0.0 | Cough, observation period 14-15, individual animal (min 14-15, post exposure, individual animals 1-6): 0 | Cough, observation period 14-15, Total (min 14-15, post exposure, sum over 6 animals): 0.0
